Results from ChEMBL document CHEMBL1125494, “A molecular modeling study of the interactions between the antiestrogen drug tamoxifen and several derivatives, and the calcium-binding protein calmodulin” (J Med Chem, 1992).

Experiment: Inhibition of calmodulin dependent cAMP phosphodiesterase.

IC50 | SMILES
10 µM | CC/C(=C(\c1ccccc1)c1ccc(OCCN(CC)CC)cc1)c1ccccc1
20 µM | C/C(=C(\c1ccccc1)c1ccc(OCCN(C)C)cc1)c1ccccc1
6.75 µM | CC/C(=C(\c1ccccc1)c1ccc(OCCN(C)C)cc1)c1ccccc1 [TAMOXIFEN]
> 50 µM | CC/C(=C(\c1ccccc1)c1ccc(OCCN2CCNCC2)cc1)c1ccccc1
2.3 µM | CC/C(=C(\c1ccc(I)cc1)c1ccc(OCCN(C)C)cc1)c1ccccc1

SMILES | IC50
CCC(=C(c1ccc(O)cc1)c1ccc(OCCN(C)C)cc1)c1ccccc1 | 19 µM
